The test has as its system antibodies in mouse serum. Briefly: Competitive inhibition ELISA (CIEIA) screening of mouse sera for isothiazolone antibodies. It is filed as binding, BALB/c mice. The following applies: for % Inhibition: inhibitor final 1 ppm, b98 says 10^-4 M; for Reactivity of serum antibodies toward inhibitor: serum of mouse 1E, immunized with 573-THY. On the procedure:
Blood samples were taken from the mice immunized in the above example. The sera were separated from the red blood cells by centrifugation. The sera were then screened for activity using competitive inhibition ELISA (CIEIA). Ninety-six well polystyrene EIA ([…]) plates were coated with 100 μl of 651 conjugated to BSA (651-BSA), 651 conjugated to THY (651-THY), 573 conjugated to BSA (573-BSA), or 573 conjugated to THY (573-THY) for at least two hours at room temperature or 16 hours at 4° C. Unbound material was washed from the wells with five washes of PBS-T. The wells then received 50 μl of buffer alone (PBS-T) or inhibitors, either 651 or 573, each diluted to 2 ppm in buffer. The wells then received 50 μl of mouse serum, so that each serum was reacted with either buffer, 651 or 573 (inhibitors). […] The wells were incubated for 30-60 minutes at room temperature. They were then washed five times with PBS-T to remove unbound material and each well then received 100 μl of a 1 μg/ml solution of biotinylated horse anti-mouse IgG (Vector Laboratories, Burlingame, Calif.), and the assay continued as described for the ELISA, supra.
If the antibodies in a serum were reactive with one or both of the inhibitors in solution in the wells, the antibody molecules, or a percentage of the antibody molecules, would bind to the inhibitors, and would therefore form an antibody-inhibitor complex which would stay in solution and be removed from the plate during the washing step. In such a case, the binding of the antibody to the inhibitor would reduce the number of antibody molecules available to bind to the coating antigen, 651-BSA. Because fewer antibody molecules are attached to the 651-BSA, there is a reduction in the number of biotinylated horse anti-mouse IgG molecules bound, resulting in fewer molecules of avidin-peroxidase complex being bound, resulting in reduced hydrolysis of the substrate, leading ultimately to lower absorbances. In all cases, the inhibitor concentration was 10^-4 M.
For orientation: In an ELISA, binding on a coated surface is turned into a signal by an enzyme label.

Where [1] appears, read: mouse 1D serum, immunogen 573-BSA, coating conjugate 573-THY.
Setting [2] is: mouse 1D serum, immunogen 573-BSA, coating conjugate 651-THY.
Where [3] appears, read: mouse 1E serum, immunogen 573-THY, coating conjugate 573-BSA.
Where [4] appears, read: mouse 1E serum, immunogen 573-THY, coating conjugate 651-BSA.
Where [5] appears, read: mouse 2D serum, immunogen 573-BSA, coating conjugate 651-THY.
The mark [6] stands for this setting: mouse 2E serum, immunogen 573-THY, coating conjugate 573-BSA.
[7] abbreviates: mouse 2E serum, immunogen 573-THY, coating conjugate 651-BSA.

Turning to `Cn1sccc1=O` [compound 573, 2-methyl-3-isothiazolone], the “Reactivity of serum antibodies toward inhibitor” value was “reactive”. In addition, under setting [1], the % Inhibition (commonly the percentage by which the read-out fell short of the control) amounted to 12%. Also, the “% Inhibition” value under setting [2] turned out to be 0%. The “% Inhibition” value under setting [3] came out at 21%. Also, the “% Inhibition” value under setting [4] amounted to 28%. Under setting [5], the “% Inhibition” value worked out at 0%. In addition, the “% Inhibition” value under setting [6] is listed as 10%. Besides, the “% Inhibition” value under setting [7] was 12%.

Take `Cn1sc(Cl)cc1=O` [compound 651, 5-chloro-2-methyl-3-isothiazolone]: the “Reactivity of serum antibodies toward inhibitor” value was “reactive”. Moreover, the “% Inhibition” value under setting [1] was found to be 0%. Further, the “% Inhibition” value under setting [2] was 10%. Besides, under setting [3], the “% Inhibition” value turned out to be 44%. Moreover, under setting [4], the “% Inhibition” value turned out to be 34%. Further, the “% Inhibition” value under setting [5] is given as 12%. For the same compound, the “% Inhibition” value under setting [6] came out at 12%. Further, the “% Inhibition” value under setting [7] is on record as 7%.

Source of the values: US5554542A, “Immunoassay for isothiazolones” (Rohm and Haas Company, priority 1993, dated 1996).
